The source of these data is ChEMBL document CHEMBL1135840, “Design, synthesis and pharmacological evaluation of novel pyrazolo[3,4-b]thieno[2,3-d]pyridine acid derivatives: a new class of anti-inflammatory and anti-platelet agents” (Bioorg Med Chem Lett, 2002).

Each structure is given as a SMILES string.

Assay [1] is filed under the species Oryctolagus cuniculus. Nature of the assay: In vitro of platelet aggregation of citreated rabbit platelet-rich plasma, induced by arachidonic acid at 200 uM. It counts as functional.
Assay [2] is filed under the species Oryctolagus cuniculus. Nature of the assay: Compound was tested for platelet aggregation in citreated rabbit platelet-rich plasma induced by arachidonic acid at 200 uM. It counts as functional.
The subject of assay [3] is Rattus norvegicus. Nature of the assay: Antiinflammatory effect at a dose of 100 umol/kg administered orally in the carrageenan-induced rat pleurisy assay (10e6 Cells/cavity). It is filed as functional.
In assay [4] the test system is Rattus norvegicus. Nature of the assay: Percent inhibition of cellular migration by the compound at a dose of 100 umol/kg was evaluated. It is filed as functional.
Assay [5] deals with Rattus norvegicus. Nature of the assay: Exudate volume was determined after administration at a dose of 100 umol/kg. It is filed as functional.
The next assay is filed under the species Cavia porcellus. Nature of the assay: In vitro effect of compound on leukotriene-D4 LTD4 (100 nM) induced contraction of isolated guinea pig tracheal strip. It is filed as functional. Conditions: Trachea.
The species named for assay [6] is Oryctolagus cuniculus. Nature of the assay: In vitro of platelet aggregation of citreated rabbit platelet-rich plasma, induced by collagen at 5 µg/mL; value expressed as slope.
Assay [7] deals with Rattus norvegicus. Nature of the assay: Percent inhibition of cellular migration by the compound at a dose of 100 umol/kg was evaluated in the carrageenan-induced rat pleurisy assay. It is filed as functional.
In assay [8] the test system is Rattus norvegicus. Nature of the assay: Exudate volume was determined after administration at a dose of 100 umol/kg in the carrageenan-induced rat pleurisy assay. It is filed as functional.

The term IC50 denotes the midpoint of a concentration-inhibition curve. Read a high IC50 as weaker potency. As a reminder, the inhibition in vivo is the percentage by which the read-out fell short of the control. High values mean a response far below the control, low ones a response near the control. Take `Cc1nn(-c2ccccc2)c2ncc3c(OC(=O)CCCC(=O)O)c(-c4ccc(Cl)cc4)sc3c12`: the values for the Aggregation in the assay filed under Oryctolagus cuniculus [1] and in the assay listed under Oryctolagus cuniculus [6] were 0% and 0, respectively. The IC50 in the assay filed under Oryctolagus cuniculus [2] came out at 0.14 µM; in the assay filed under Cavia porcellus, 43.7 µM. This compound also displayed a Cell number in the assay on Rattus norvegicus [3] of 19600000. The inhibition in vivo at 100 µmol/kg with Rattus norvegicus [4] was determined as 36.2%. Further, in the assay on Rattus norvegicus [5], the Exudate volume turned out to be 3.05 mL.

Turning to `Cc1nn(-c2ccccc2)c2ncc3c(OCCCCC(=O)O)c(-c4ccc(Cl)cc4)sc3c12`, the figures for the Aggregation in the assay listed under Oryctolagus cuniculus [1] and in the assay listed under Oryctolagus cuniculus [6] were 58.9% and 7.5, respectively. Also, the Cell number in the assay with Rattus norvegicus [3] amounted to 21.5. Moreover, the inhibition in vivo at 100 µmol/kg with Rattus norvegicus [4] amounted to 30%. Further, the Exudate volume in the assay on Rattus norvegicus [5] was 3.22 mL.

As to `Cc1nn(-c2ccccc2)c2ncc3c(OCCCCCC(=O)O)c(-c4ccc(Cl)cc4)sc3c12`, the Aggregation in the assay filed under Oryctolagus cuniculus [1] is given as 56.6%; in the assay listed under Oryctolagus cuniculus [6], 5.8. Further, the Cell number in the assay with Rattus norvegicus [3] is on record as 17800000. The same compound gave an inhibition in vivo at 100 µmol/kg with Rattus norvegicus [4] of 42%. The compound further displayed an Exudate volume in the assay on Rattus norvegicus [5] of 3.16 mL.

For the compound `Cc1nn(-c2ccccc2)c2ncc3c(OCc4ccc(CC(=O)O)cc4)c(-c4ccc(Cl)cc4)sc3c12`, the values for the Aggregation in the assay listed under Oryctolagus cuniculus [1] and in the assay listed under Oryctolagus cuniculus [6] were 60.5% and 4.7, respectively. The same compound had a Cell number in the assay with Rattus norvegicus [3] of 21900000. The compound also had an inhibition in vivo at 100 µmol/kg in the assay with Rattus norvegicus [4] of 28.7%. This compound displayed an Exudate volume in the assay on Rattus norvegicus [5] of 3.1 mL.

As for `COc1ccc2c(c1)c(CC(=O)O)c(C)n2C(=O)c1ccc(Cl)cc1` [INDOMETHACIN], the Aggregation in the assay filed under Oryctolagus cuniculus [1] is 0%; in the assay filed under Oryctolagus cuniculus [6], 0.4. The compound also came in with a Cell number in the assay with Rattus norvegicus [3] of 23.3. This compound also had an inhibition in vivo at 100 µmol/kg in the assay with Rattus norvegicus [7] of 24.1%. Moreover, the Exudate volume in the assay on Rattus norvegicus [8] amounted to 3.21 mL.
